Laboratory results published in patent US6022901A, “Administration of resveratrol to prevent or treat restenosis following coronary intervention” (priority 1998, dated 2000).
“And” between values parts separate entries of the source, which are not always exact repeats. Equal entries are not always repeated.

Experiments:
hydroperoxidase = conditions: antipromotion activity; cited from earlier work
[1] = system: phase II drug-metabolizing enzymes; conditions: anti-initiation activity; cited from earlier work
cyclooxygenase = conditions: antipromotion activity; cited from earlier work
[2] = anti-initiation activity; cited from earlier work
[3] = antipromotion activity; cited from earlier work
[4] = system: human promyelocytic leukemia cell; conditions: cited from earlier work
[5] = Clinical signs, cage observations twice daily in mice fed resveratrol; format: in vivo, mouse (Female Mice Strain A); conditions: any dose groups tested, 125-3000 mg/kg diet, 6 weeks
From the text: (§1) This experimental work assesses the bioavailability of resveratrol when administered orally to Female Mice Strain A, establishes the relationship betveen oral administration of resveratrol and the plasma concentration of the female mice, assesses the method of analysis for mouse plasma and establishes the detection limit of resveratrol in animal plasma. The mice were received from the Biological Testing Branch, National Cancer Institute, at 4-6 weeks of age, each having a body weight of approximately 16 g.
(§2) After a quarantine period of one week, seven (7) groups each consisting of 10 mice were given resveratrol mixed with Teklad 4% Mouse/Rat chow ad libitum for a 6-week treatment period. As indicated in the table which follows, the concentration of resveratrol ranged from 125 mg/kg of diet to 3000 mg/kg of diet, with one group, as the control group, receiving only the mouse chow.
(§3) Parameters monitored during the course of the study included sided-cage observations twice daily and body weight. Blood samples were taken at the end of the treatment period of 6 weeks and kept frozen at -20° C.±5 until the time of analysis. All animals were sacrificed by asphyxiation.

[6] = Effect of Resveratrol on Body Weight of Female A/J Mice (diet, 6-week treatment); format: in vivo
From the text: as §1, §2, §3

[7] = Resveratrol concentration in mouse plasma after oral administration in diet (HPLC); format: in vivo, mouse (Female Mice Strain A); conditions: for concentration at 1008 h: plasma, po, 6 weeks
From the text: as §1
After a quarantine period of one week, seven (7) groups each consisting of 10 mice were given resveratrol mixed with Teklad 4% Mouse/Rat chow ad libitum for a 6-week treatment period.
as §3
Plasma resveratrol concentration was determined by a liquid-liquid extraction method and reverse phase HPLC at Pharmascience Inc., Bio-analytical Division, Quebec, Canada, as follows. After addition of internal standard and buffer to plasma samples, ethyl acetate was then added. The extracted organic phase was transferred to a clean tube and dried with a nitrogen evaporator. The residue was reconstituted with the mobile phase and then injected to HPLC with UV at 310 nm.

[8] = anti-initiation activity; cited from earlier work; remark: listed apart in the source

Oc1ccc(C=Cc2cc(O)cc(O)c2)cc1 [resveratrol, 3,5,4'-trihydroxy stilbene]
inhibition of hydroperoxidase (hydroperoxidase): inhibited cyclooxygenase and hydroperoxidase
induction of phase II drug-metabolizing enzymes [1]: induced phase II drug-metabolizing enzymes
inhibition of cyclooxygenase (cyclooxygenase): inhibited cyclooxygenase
antioxidant activity [2]: acted as an antioxidant
anti-inflammatory effects [3]: mediated anti-inflammatory effects
human promyelocytic leukemia cell differentiation [4]: induced human promyelocytic leukemia cell differentiation
compound-related clinical signs [5]: no compound-related clinical signs
mean body weight ([6]; 125 ppm, day 5, N=10): 16.4 Grams
mean body weight ([6]; 125 ppm, day 8, N=10): 16.6 Grams
mean body weight ([6]; 125 ppm, day 12, N=10): 17.3 Grams
mean body weight ([6]; 125 ppm, day 15, N=10): 18.0 Grams
mean body weight ([6]; 125 ppm, day 19, N=10): 18.4 Grams
mean body weight ([6]; 125 ppm, day 22, N=10): 18.7 Grams
mean body weight ([6]; 125 ppm, day 26, N=10): 19.0 Grams
mean body weight ([6]; 125 ppm, day 29, N=10): 19.0 Grams
mean body weight ([6]; 125 ppm, day 33, N=10): 19.4 Grams
mean body weight ([6]; 125 ppm, day 36, N=10): 19.3 Grams
mean body weight ([6]; 125 ppm, day 40, N=10): 19.2 Grams
mean body weight ([6]; 125 ppm, day 42, N=10): 19.7 Grams
mean body weight ([6]; 250 ppm, day 5, N=10): 16.2 Grams
mean body weight ([6]; 250 ppm, day 8, N=10): 16.8 Grams
mean body weight ([6]; 250 ppm, day 12, N=10): 17.7 Grams
mean body weight ([6]; 250 ppm, day 15, N=10): 18.4 Grams
mean body weight ([6]; 250 ppm, day 19, N=10): 18.9 Grams
mean body weight ([6]; 250 ppm, day 22, N=10): 19.0 Grams
mean body weight ([6]; 250 ppm, day 26, N=10): 19.3 Grams
mean body weight ([6]; 250 ppm, day 29, N=10): 19.4 Grams
mean body weight ([6]; 250 ppm, day 33, N=10): 19.7 Grams
mean body weight ([6]; 250 ppm, day 36, N=10): 19.6 Grams
mean body weight ([6]; 250 ppm, day 40, N=10): 19.9 Grams
mean body weight ([6]; 250 ppm, day 42, N=10): 19.9 Grams
mean body weight ([6]; 500 ppm, day 5, N=10): 16.6 Grams
mean body weight ([6]; 500 ppm, day 8, N=10): 17.5 Grams
mean body weight ([6]; 500 ppm, day 12, N=10): 17.8 Grams
mean body weight ([6]; 500 ppm, day 15, N=10): 18.3 Grams
mean body weight ([6]; 500 ppm, day 19, N=10): 18.7 Grams
mean body weight ([6]; 500 ppm, day 22, N=10): 19.2 Grams
mean body weight ([6]; 500 ppm, day 26, N=10): 19.4 Grams
mean body weight ([6]; 500 ppm, day 29, N=10): 19.8 Grams
mean body weight ([6]; 500 ppm, day 33, N=10): 19.8 Grams
mean body weight ([6]; 500 ppm, day 36, N=10): 20.1 Grams
mean body weight ([6]; 500 ppm, day 40, N=10): 20.0 Grams
mean body weight ([6]; 500 ppm, day 42, N=10): 20.2 Grams
mean body weight ([6]; 1000 ppm, day 5, N=10): 16.1 Grams
mean body weight ([6]; 1000 ppm, day 8, N=10): 16.9 Grams
mean body weight ([6]; 1000 ppm, day 12, N=10): 17.4 Grams
mean body weight ([6]; 1000 ppm, day 15, N=10): 18.2 Grams
mean body weight ([6]; 1000 ppm, day 19, N=10): 18.1 Grams
mean body weight ([6]; 1000 ppm, day 22, N=10): 18.8 Grams
mean body weight ([6]; 1000 ppm, day 26, N=10): 19.0 Grams
mean body weight ([6]; 1000 ppm, day 29, N=10): 19.3 Grams
mean body weight ([6]; 1000 ppm, day 33, N=10): 19.5 Grams
mean body weight ([6]; 1000 ppm, day 36, N=10): 19.8 Grams
mean body weight ([6]; 1000 ppm, day 40, N=10): 19.5 Grams
mean body weight ([6]; 1000 ppm, day 42, N=10): 19.6 Grams
mean body weight ([6]; 2000 ppm, day 5, N=10): 16.3 Grams
individual body weight ([6]; 2000 ppm, day 5, animals 51-60): 17.8 Grams and 15.7 Grams and 16.1 Grams and 17.0 Grams and 13.7 Grams
mean body weight ([6]; 2000 ppm, day 8, N=10): 16.6 Grams
individual body weight ([6]; 2000 ppm, day 8, animals 51-60): 19.1 Grams and 15.8 Grams and 14.8 Grams and 16.5 Grams and 13.6 Grams
mean body weight ([6]; 2000 ppm, day 12, N=10): 17.7 Grams
individual body weight ([6]; 2000 ppm, day 12, animals 51-60): 19.5 Grams and 16.9 Grams and 17.0 Grams and 19.2 Grams and 18.1 Grams and 15.3 Grams
mean body weight ([6]; 2000 ppm, day 15, N=10): 17.7 Grams
individual body weight ([6]; 2000 ppm, day 15, animals 51-60): 19.6 Grams and 16.9 Grams and 16.7 Grams and 19.0 Grams and 17.7 Grams and 14.5 Grams
mean body weight ([6]; 2000 ppm, day 19, N=10): 18.8 Grams
individual body weight ([6]; 2000 ppm, day 19, animals 51-60): 20.1 Grams and 18.4 Grams and 19.5 Grams and 15.7 Grams
mean body weight ([6]; 2000 ppm, day 22, N=10): 19.1 Grams
individual body weight ([6]; 2000 ppm, day 22, animals 51-60): 20.3 Grams and 18.8 Grams and 18.4 Grams and 20.9 Grams and 20.0 Grams and 16.3 Grams
mean body weight ([6]; 2000 ppm, day 26, N=10): 19.2 Grams
individual body weight ([6]; 2000 ppm, day 26, animals 51-60): 20.2 Grams and 19.0 Grams and 18.7 Grams and 20.7 Grams and 19.9 Grams and 16.0 Grams
mean body weight ([6]; 2000 ppm, day 29, N=10): 19.5 Grams
individual body weight ([6]; 2000 ppm, day 29, animals 51-60): 20.7 Grams and 19.5 Grams and 18.8 Grams and 21.4 Grams and 20.0 Grams and 16.1 Grams
mean body weight ([6]; 2000 ppm, day 33, N=10): 19.8 Grams
individual body weight ([6]; 2000 ppm, day 33, animals 51-60): 21.0 Grams and 19.8 Grams and 19.5 Grams and 21.2 Grams and 20.7 Grams and 16.6 Grams
mean body weight ([6]; 2000 ppm, day 36, N=10): 19.6 Grams
individual body weight ([6]; 2000 ppm, day 36, animals 51-60): 21.3 Grams and 18.4 Grams and 18.5 Grams and 20.4 Grams and 20.0 Grams and 16.7 Grams
mean body weight ([6]; 2000 ppm, day 40, N=10): 19.7 Grams
individual body weight ([6]; 2000 ppm, day 40, animals 51-60): 20.3 Grams and 19.9 Grams and 18.9 Grams and 21.0 Grams and 20.9 Grams and 17.2 Grams
mean body weight ([6]; 2000 ppm, day 42, N=10): 20.3 Grams
individual body weight ([6]; 2000 ppm, day 42, animals 51-60): 19.5 Grams and 21.7 Grams and 19.2 Grams and 21.9 Grams and 21.3 Grams and 18.0 Grams
mean body weight ([6]; group 7, 300 (ppm), day 5, N=10): 16.3 Grams
individual body weight ([6]; group 7, 300 (ppm), day 5, animals 61-70): 16.0 Grams and 14.9 Grams and 15.2 Grams
mean body weight ([6]; group 7, 300 (ppm), day 8, N=10): 17.1 Grams
individual body weight ([6]; group 7, 300 (ppm), day 8, animals 61-70): 16.8 Grams and 16.4 Grams and 16.1 Grams
mean body weight ([6]; group 7, 300 (ppm), day 12, N=10): 17.6 Grams
individual body weight ([6]; group 7, 300 (ppm), day 12, animals 61-70): 17.6 Grams and 17.5 Grams and 17.4 Grams
mean body weight ([6]; group 7, 300 (ppm), day 15, N=10): 17.1 Grams
individual body weight ([6]; group 7, 300 (ppm), day 15, animals 61-70): 16.9 Grams and 17.2 Grams
mean body weight ([6]; group 7, 300 (ppm), day 19, N=10): 18.7 Grams
individual body weight ([6]; group 7, 300 (ppm), day 19, animals 61-70): 18.8 Grams and 18.2 Grams
mean body weight ([6]; group 7, 300 (ppm), day 22, N=10): 19.1 Grams
individual body weight ([6]; group 7, 300 (ppm), day 22, animals 61-70): 18.5 Grams and 18.6 Grams
mean body weight ([6]; group 7, 300 (ppm), day 26, N=10): 19.1 Grams
individual body weight ([6]; group 7, 300 (ppm), day 26, animals 61-70): 18.6 Grams and 18.5 Grams
mean body weight ([6]; group 7, 300 (ppm), day 29, N=10): 18.9 Grams
individual body weight ([6]; group 7, 300 (ppm), day 29, animals 61-70): 18.8 Grams and 18.3 Grams
mean body weight ([6]; group 7, 300 (ppm), day 33, N=10): 19.5 Grams
individual body weight ([6]; group 7, 300 (ppm), day 33, animals 61-70): 18.7 Grams and 18.8 Grams
mean body weight ([6]; group 7, 300 (ppm), day 36, N=10): 19.9 Grams
individual body weight ([6]; group 7, 300 (ppm), day 36, animals 61-70): 19.4 Grams and 18.6 Grams
mean body weight ([6]; group 7, 300 (ppm), day 40, N=10): 19.6 Grams
individual body weight ([6]; group 7, 300 (ppm), day 40, animals 61-70): 19.3 Grams and 19.1 Grams
mean body weight ([6]; group 7, 300 (ppm), day 42, N=10): 20.1 Grams
individual body weight ([6]; group 7, 300 (ppm), day 42, animals 61-70): 19.1 Grams and 19.5 Grams
oral absorption ([7]; mixed with chow): easily absorbed by the oral route
relationship between plasma resveratrol levels and amount administered ([7]; oral in diet, FIG. 1): linear relationship
concentration at 1008 h ([7]; 125 mg/kg diet, n=5): 10.8 ng/mL
concentration at 1008 h ([7]; 250 mg/kg diet, n=4): 87.9 ng/mL
concentration at 1008 h ([7]; 500 mg/kg diet, n=5): 56.8 ng/mL
concentration at 1008 h ([7]; 1000 mg/kg diet, n=5): 99 ng/mL
concentration at 1008 h ([7]; 2000 mg/kg diet, n=5): 178 ng/mL
concentration at 1008 h ([7]; 3000 mg/kg diet, n=5): 447 ng/mL
antimutagen activity [8]: antimutagen
